The microsomal CLint is the rate of metabolic loss divided by the concentration. Low values mean greater metabolic stability, high ones faster metabolism. What is called Km is the substrate concentration at which the rate is half of its maximum. A word on the fraction unbound: it is free concentration divided by total concentration. Broadly, the pKa is the pH at which an ionisable group is half protonated.

“And” between values parts separate entries of the source, which are not always exact repeats. Identical values can stand only once. Marks after values point to notes of the source that are not given here.

These results are taken from patent publication US20210223237A1, “COMPOSITIONS AND METHODS FOR STUDYING DRUG METABOLISM” (Boehringer Ingelheim International GmbH, priority 2020, published 2021).

Series [1] can be described thus: Non-specific binding of compounds to magnetizable beads alone. Conditions: 30 min incubation of beads (5.3×10^9 beads), bioanalysis of supernatant.
In another series the target is T1, UGT2B7 (Homo sapiens, UniProt P16662).
T1 sequence (P16662 24-529): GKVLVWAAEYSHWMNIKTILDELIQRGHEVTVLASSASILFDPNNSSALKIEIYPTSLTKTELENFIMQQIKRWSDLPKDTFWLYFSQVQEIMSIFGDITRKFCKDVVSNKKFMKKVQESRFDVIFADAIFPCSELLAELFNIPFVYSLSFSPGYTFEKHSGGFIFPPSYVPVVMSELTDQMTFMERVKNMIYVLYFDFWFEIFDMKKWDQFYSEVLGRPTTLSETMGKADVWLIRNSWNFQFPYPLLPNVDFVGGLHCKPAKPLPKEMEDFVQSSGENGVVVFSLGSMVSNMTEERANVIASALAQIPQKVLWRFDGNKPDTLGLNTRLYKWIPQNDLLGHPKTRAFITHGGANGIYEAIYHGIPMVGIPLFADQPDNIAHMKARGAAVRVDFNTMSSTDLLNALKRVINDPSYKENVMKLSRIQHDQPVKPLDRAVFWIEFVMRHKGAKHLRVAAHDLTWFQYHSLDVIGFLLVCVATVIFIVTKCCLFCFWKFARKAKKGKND
Nature of the series: in vitro. Conditions: for microsomal CLint: pH 7.8; for Km: pH 7.8, Km, Michaelis-Menten modeling.

Series [2] can be described thus: in vitro. Conditions: human.
The nature of series [3]: in vitro. Conditions: human. The source holds these as a separate data set.
Series [4] can be described thus: Microsomal binding (fu,mic) using HLM-beads. Conditions: for fu,mic: HLM-beads, compound 1.0 μM, (SD).
The nature of series [5]: Microsomal binding (fu,mic) using rapid equilibrium dialysis (RED). Conditions: compound 1.0 μM, (SD). Background: Equilibrium dialysis compares concentrations on both sides of a semipermeable membrane.
The next series addresses T2, CYP2C8 (Homo sapiens, UniProt P10632).
T2 sequence (P10632 1-490): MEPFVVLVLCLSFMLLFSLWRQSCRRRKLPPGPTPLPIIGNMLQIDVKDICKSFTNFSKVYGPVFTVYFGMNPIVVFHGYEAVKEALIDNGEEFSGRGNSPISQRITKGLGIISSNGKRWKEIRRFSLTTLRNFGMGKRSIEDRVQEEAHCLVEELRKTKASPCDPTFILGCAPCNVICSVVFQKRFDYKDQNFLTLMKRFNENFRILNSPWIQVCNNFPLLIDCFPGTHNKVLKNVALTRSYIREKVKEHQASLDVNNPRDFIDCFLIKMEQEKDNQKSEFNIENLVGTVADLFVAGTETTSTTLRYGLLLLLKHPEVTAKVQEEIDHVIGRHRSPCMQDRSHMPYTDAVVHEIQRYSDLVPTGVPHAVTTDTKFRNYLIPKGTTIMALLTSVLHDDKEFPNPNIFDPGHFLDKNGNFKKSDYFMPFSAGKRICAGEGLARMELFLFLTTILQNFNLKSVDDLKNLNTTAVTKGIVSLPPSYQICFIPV

For series [6] the following is noted: cited from earlier work.
Series [7] addresses T3, UGT1A1 (Homo sapiens, UniProt P22309).
T3 sequence (P22309 26-533): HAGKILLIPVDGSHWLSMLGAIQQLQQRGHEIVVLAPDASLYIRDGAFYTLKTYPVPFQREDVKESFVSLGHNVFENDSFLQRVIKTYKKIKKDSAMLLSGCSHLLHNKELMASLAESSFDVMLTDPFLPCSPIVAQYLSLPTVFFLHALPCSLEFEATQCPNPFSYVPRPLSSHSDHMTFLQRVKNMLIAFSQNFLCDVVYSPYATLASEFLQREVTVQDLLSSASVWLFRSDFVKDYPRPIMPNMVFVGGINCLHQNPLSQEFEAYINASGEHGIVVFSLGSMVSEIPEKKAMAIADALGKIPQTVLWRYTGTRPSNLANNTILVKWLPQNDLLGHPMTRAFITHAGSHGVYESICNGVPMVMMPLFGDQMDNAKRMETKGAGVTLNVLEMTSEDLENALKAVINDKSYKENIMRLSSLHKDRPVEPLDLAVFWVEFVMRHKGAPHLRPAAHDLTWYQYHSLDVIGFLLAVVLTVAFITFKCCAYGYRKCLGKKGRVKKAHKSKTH
Nature of the series: in vitro. Conditions: pH 7.8.

Series [8] concerns the target T3, UGT1A1. Nature of the series: UGT1A1-catalyzed E2 3-glucuronidation kinetics in HLM suspensions vs HLM-beads.
Substrate in series [9]: C[C@]12CC[C@@H]3c4ccc(O)cc4CC[C@H]3[C@@H]1CC[C@@H]2O
Nature of the series: not read. Conditions: other: HLM suspensions; allosteric sigmoidal modeling; pH 7.8; 37.0 °C.

Substrate in series [10]: CCN(CC)Cc1cc(Nc2ccnc3cc(Cl)ccc23)ccc1O
Nature of the series: not read. Conditions: other: HLM suspensions; substrate inhibition modeling; pH 7.4.

Substrate in series [11]: CC(C)c1cccc(C(C)C)c1O
[12] abbreviates: human liver microsomes (suspension).
Setting [13] is: human liver microsomes bound to magnetic beads (HLM-beads).

As to `OCc1ncc2n1-c1ccc(Cl)cc1C(c1ccccc1F)=NC2` [1′OH midazolam, 1′hydroxymidazolam], in series [1], the “non-specific binding to the beads” value is listed as “not observed”.
Regarding `Cc1cn([C@H]2C[C@H](N=[N+]=[N-])[C@@H](CO)O2)c(=O)[nH]c1=O` [AZT, zidovudine], the values for the microsomal CLint on UGT2B7 (setting [12]) and on UGT2B7 were 0.44 µL/min/mg and 2.8 µL/min/mg, respectively. Moreover, the values for the Km at UGT2B7 (HLM suspensions) and at UGT2B7 (HLM-beads) were 1400 ± 0.1 µM and 490 ± 0.06 µM, respectively.
In the case of `Cc1nnc2n1-c1ccc(Cl)cc1C(c1ccccc1)=NC2` [Alprazolam], the fraction unbound at 5 min, 1 μM in “in vitro [2]” (microsomes) amounted to 0.81. In addition, the unbound share (fraction unbound) at 6 h, 1 μM in “in vitro [3]” (microsomes) stood at 0.98. Besides, the figures for the “fu,mic ratio HLM-beads/RED” value in series [4] (HLM 0.50 mg/ml), in [4] (HLM 1.0 mg/ml) and in series [4] (HLM […]) were 0.77, 0.66 and 0.82, respectively. Also, the “fu,mic” value is given as 0.78 (0.06) in [4] (HLM 0.50 mg/ml), 0.68 (0.07) in series [4] (HLM 1.0 mg/ml), 1.0 (0.1) in [5] (HLM 0.50 mg/ml) and 1.0 (0.1) in [5] (HLM 1.0 mg/ml).
Consider `CCN(CC)Cc1cc(Nc2ccnc3cc(Cl)ccc23)ccc1O` [Amodiaquine, amodiaquine], for which the “Km, times higher with HLM-beads than with HLM suspensions” value on CYP2C8 is “approximately 2 ×”.
On to `CN(C)CCCN1c2ccccc2Sc2ccc(Cl)cc21` [Chlorpromazine, chlorpromazine], for which the “fu,mic” value in [4] (HLM 0.50 mg/ml) was 0.11 (0.02); in series [4] (HLM […]) it was 0.79 (0.13).
For `O=C(O)Cc1ccccc1Nc1c(Cl)cccc1Cl` [Diclofenac, diclofenac], the unbound share (fraction unbound) at 5 min, 1 μM stood at 0.94 in the series “in vitro [2]” and 0.87 in the series “in vitro [2]” (setting [13]). The molecule further returned a fraction unbound at 6 h, 1 μM in the series “in vitro [3]” (microsomes) of 0.98. In addition, the “fu,mic” value in [4] (HLM 0.50 mg/ml) is listed as 0.92 (0.03)^a.
For the molecule `COc1ccc([C@@H]2Sc3ccccc3N(CCN(C)C)C(=O)[C@@H]2OC(C)=O)cc1` [Diltiazem, diltiazem], the fraction unbound at 5 min, 1 μM was found to be 0.99 in “in vitro [2]” and 0.97 in “in vitro [2]” (setting [13]). Also, in the series “in vitro [3]” (microsomes), the fraction unbound at 6 h, 1 μM was found to be 0.96. For the same molecule, the pKa in series [6] is 9.4. Further, the “fu,mic ratio HLM-beads/RED” value is on record as 1.5 in series [4] (HLM 0.50 mg/ml), 1.3 in [4] (HLM 1.0 mg/ml) and 1.0 in series [4] (HLM […]).
The molecule `C[C@]12CC[C@@H]3c4ccc(O)cc4CC[C@H]3[C@@H]1CC[C@@H]2O` [E2, estradiol] showed a microsomal CLint at UGT1A1 [7] (setting [12]) of 59 µL/min/mg. In addition, the intrinsic clearance (microsomal CLint) on UGT1A1 [7] came out at 88 µL/min/mg. At UGT1A1 [8], the “V/K or CLint, fold higher in HLM-beads than in HLM suspensions” value is “higher” and the “Vmax, HLM-beads compared with HLM suspensions” value is recorded as “comparable”.
`CN(C)CCCN1c2ccccc2CCc2ccccc21` [Imipramine, imipramine] came in with a fraction unbound at 6 h, 1 μM in “in vitro [3]” (microsomes) of 0.4.
In the case of `CCC(C)n1ncn(-c2ccc(N3CCN(c4ccc(OCC5COC(Cn6cncn6)(c6ccc(Cl)cc6Cl)O5)cc4)CC3)cc2)c1=O` (centres unmarked) [Itraconazole, itraconazole], in “in vitro [2]” (setting [13]), the fraction unbound at 5 min, 1 μM came to 0.073. Further, the fraction unbound at 6 h, 1 μM in the series “in vitro [3]” turned out to be 0.025. In addition, the “fu,mic ratio HLM-beads/RED” value is on record as 2.8 in series [4] (HLM 0.50 mg/ml), 2.9 in series [4] (HLM 1.0 mg/ml) and 0.84 in series [4] (HLM […]). The “fu,mic” value in series [4] (HLM 0.50 mg/ml) is recorded as 0.10 (0.01); in series [4] (HLM […]), 0.24 (0.04); in series [5] (pre-soak method, HLM 0.50 mg/ml), 0.036 (0.005)^b; in series [5] (pre-soak method, HLM […]), 0.29 (0.07)^b.
Take `CCCCNC(=O)NS(=O)(=O)c1ccc(C)cc1` [Tolbutamide, tolbutamide]: in [6], the pKa is on record as 5.2.

B1: UGT1A1 (Homo sapiens) (protein)
chain: HAGKILLIPVDGSHWLSMLGAIQQLQQRGHEIVVLAPDASLYIRDGAFYTLKTYPVPFQREDVKESFVSLGHNVFENDSFLQRVIKTYKKIKKDSAMLLSGCSHLLHNKELMASLAESSFDVMLTDPFLPCSPIVAQYLSLPTVFFLHALPCSLEFEATQCPNPFSYVPRPLSSHSDHMTFLQRVKNMLIAFSQNFLCDVVYSPYATLASEFLQREVTVQDLLSSASVWLFRSDFVKDYPRPIMPNMVFVGGINCLHQNPLSQEFEAYINASGEHGIVVFSLGSMVSEIPEKKAMAIADALGKIPQTVLWRYTGTRPSNLANNTILVKWLPQNDLLGHPMTRAFITHAGSHGVYESICNGVPMVMMPLFGDQMDNAKRMETKGAGVTLNVLEMTSEDLENALKAVINDKSYKENIMRLSSLHKDRPVEPLDLAVFWVEFVMRHKGAPHLRPAAHDLTWYQYHSLDVIGFLLAVVLTVAFITFKCCAYGYRKCLGKKGRVKKAHKSKTH
In the case of B1, in “not read [9]”, the K0.5 was found to be 13 ± 1 µM.

B2: CYP2C8 (Homo sapiens) (protein)
chain: MEPFVVLVLCLSFMLLFSLWRQSCRRRKLPPGPTPLPIIGNMLQIDVKDICKSFTNFSKVYGPVFTVYFGMNPIVVFHGYEAVKEALIDNGEEFSGRGNSPISQRITKGLGIISSNGKRWKEIRRFSLTTLRNFGMGKRSIEDRVQEEAHCLVEELRKTKASPCDPTFILGCAPCNVICSVVFQKRFDYKDQNFLTLMKRFNENFRILNSPWIQVCNNFPLLIDCFPGTHNKVLKNVALTRSYIREKVKEHQASLDVNNPRDFIDCFLIKMEQEKDNQKSEFNIENLVGTVADLFVAGTETTSTTLRYGLLLLLKHPEVTAKVQEEIDHVIGRHRSPCMQDRSHMPYTDAVVHEIQRYSDLVPTGVPHAVTTDTKFRNYLIPKGTTIMALLTSVLHDDKEFPNPNIFDPGHFLDKNGNFKKSDYFMPFSAGKRICAGEGLARMELFLFLTTILQNFNLKSVDDLKNLNTTAVTKGIVSLPPSYQICFIPV
As to B2, in “not read [10]”, the Km was 0.732 ± 0.11 µM and the Vmax/Km is 1340 µL/min/mg.

B3: UGT1A9 (Homo sapiens) (protein)
chain: GKLLVVPMDGSHWFTMRSVVEKLILRGHEVVVVMPEVSWQLGRSLNCTVKTYSTSYTLEDLDREFKAFAHAQWKAQVRSIYSLLMGSYNDIFDLFFSNCRSLFKDKKLVEYLKESSFDAVFLDPFDNCGLIVAKYFSLPSVVFARGILCHYLEEGAQCPAPLSYVPRILLGFSDAMTFKERVRNHIMHLEEHLLCHRFFKNALEIASEILQTPVTEYDLYSHTSIWLLRTDFVLDYPKPVMPNMIFIGGINCHQGKPLPMEFEAYINASGEHGIVVFSLGSMVSEIPEKKAMAIADALGKIPQTVLWRYTGTRPSNLANNTILVKWLPQNDLLGHPMTRAFITHAGSHGVYESICNGVPMVMMPLFGDQMDNAKRMETKGAGVTLNVLEMTSEDLENALKAVINDKSYKENIMRLSSLHKDRPVEPLDLAVFWVEFVMRHKGAPHLRPAAHDLTWYQYHSLDVIGFLLAVVLTVAFITFKCCAYGYRKCLGKKGRVKKAHKSKTH
As for B3, the K0.5 in series [11] was 30 ± 4 μM and 13 ± 2^sig μM.
